How the values were obtained:
[1] = Tmax in Sprague-Dawley rat at 5 mg/kg, po by LC-MS/MS analysis; type: ADME, organism-based; settings: in vivo
[2] = Oral bioavailability in Sprague-Dawley rat at 5 mg/kg by LC-MS/MS analysis; type: ADME, organism-based; settings: in vivo
[3] = target: Receptor-type tyrosine-protein kinase FLT3 (Homo sapiens, UniProt P36888, N841I); assay: Binding affinity to human partial length FLT3 N841I mutant (V592 to Y969 residues) expressed in Escherichia coli after 1 hr by qPCR analysis
[4] = target: Receptor-type tyrosine-protein kinase FLT3 (Homo sapiens) (UniProt P36888); assay: Inhibition of FLT3 autophosphorylation in human MV4-11 cells assessed as ratio of phosphorylated FLT3 to beta-actin level at 100 nM after 2 hrs by Western blot analysis relative to control; type: cell-based
[5] = target: Receptor-type tyrosine-protein kinase FLT3 (Homo sapiens) (UniProt P36888); assay: Inhibition of FLT3 autophosphorylation in human MOLM13 cells assessed as ratio of phosphorylated FLT3 to beta-actin level at 30 nM after 2 hrs by Western blot analysis relative to control; type: cell-based
[6] = system: Receptor-type tyrosine-protein kinase FLT3 (Homo sapiens), P36888 [UNDEFINED MUTATION]; assay: Inhibition of FLT3 ITD mutant in human MOLM13 cells assessed as ratio of phosphorylated STAT5 to beta-actin level at 30 nM after 2 hrs by Western blot analysis relative to control; type: cell-based
Homo sapiens = species: Homo sapiens; assay: Inhibition of MAPK in human MOLM13 cells assessed as ratio of phosphorylated ERK to beta-actin level at 100 nM after 2 hrs by Western blot analysis relative to control; type: cell-based
MV4-11 [7] = assay: Antitumour activity against human MV4-11 cells xenografted in NOD/SCID mouse assessed as tumour growth inhibition at 10 mg/kg, po qd for 18 days measured every two days during compound dosing by caliper method relative to control; type: functional; settings: MV4-11, po, read-out: TGI
MOLM-13 [8] = assay: Cell cycle arrest in human MOLM13 cells assessed as accumulation at G2/M phase at 3 nM after 24 hrs by propidium iodide staining-based flow cytometric analysis (reference value: 13.52%); type: functional
MOLM-13 [9] = assay: Cell cycle arrest in human MOLM13 cells assessed as accumulation at G2/M phase at 10 nM after 24 hrs by propidium iodide staining-based flow cytometric analysis (reference value: 13.52%); type: functional
MOLM-13 [10] = assay: Cell cycle arrest in human MOLM13 cells assessed as accumulation at S phase at 1 nM after 24 hrs by propidium iodide staining-based flow cytometric analysis (reference value: 41.95%); type: functional
MV4-11 [11] = assay: Cell cycle arrest in human MV4-11 cells assessed as accumulation at S phase at 10 nM after 24 hrs by propidium iodide staining-based flow cytometric analysis (reference value: 30.12%); type: functional
MOLM-13 [12] = assay: Induction of apoptosis in human MOLM13 cells assessed as late apoptotic cells at 1 nM after 48 hrs by Annexin V/propidium iodide staining based flow cytometry (reference value: 5.52%); type: functional
MV4-11 [13] = assay: Induction of apoptosis in human MV4-11 cells assessed as viable cells at 1 nM after 48 hrs by Annexin V/propidium iodide staining based flow cytometry (reference value: 94.4%); type: functional; settings: MV4-11, 48 h, read-out: Activity
HL-60 = assay: Antiproliferative activity against human HL60 cells harboring wild-type FLT3 measured after 72 hrs by MTT assay; type: functional, cell-based; settings: HL-60, 72 h
MOLM-13 [14] = assay: Cell cycle arrest in human MOLM13 cells assessed as accumulation at S phase at 30 nM after 24 hrs by propidium iodide staining-based flow cytometric analysis (reference value: 41.95%); type: functional
MV4-11 [15] = assay: Cell cycle arrest in human MV4-11 cells assessed as accumulation at G0/G1 phase at 30 nM after 24 hrs by propidium iodide staining-based flow cytometric analysis (reference value: 48.76%); type: functional
MV4-11 [16] = assay: Cell cycle arrest in human MV4-11 cells assessed as accumulation at G2/M phase at 30 nM after 24 hrs by propidium iodide staining-based flow cytometric analysis (reference value: 21.12%); type: functional
MV4-11 [17] = assay: Cell cycle arrest in human MV4-11 cells assessed as accumulation at S phase at 30 nM after 24 hrs by propidium iodide staining-based flow cytometric analysis (reference value: 30.12%); type: functional
MOLM-13 [18] = assay: Induction of apoptosis in human MOLM13 cells assessed as viable cells at 10 nM after 48 hrs by Annexin V/propidium iodide staining based flow cytometry (reference value: 88.2%); type: functional; settings: MOLM-13, 48 h, read-out: Activity
MOLM-13 [19] = assay: Induction of apoptosis in human MOLM13 cells assessed as necrotic cells at 100 nM after 48 hrs by Annexin V/propidium iodide staining based flow cytometry (reference value: 0.29%); type: functional
MOLM-13 [20] = assay: Induction of apoptosis in human MOLM13 cells assessed as late apoptotic cells at 1 uM after 48 hrs by Annexin V/propidium iodide staining based flow cytometry (reference value: 5.52%); type: functional
MOLM-13 [21] = assay: Induction of apoptosis in human MOLM13 cells assessed as necrotic cells at 1 uM after 48 hrs by Annexin V/propidium iodide staining based flow cytometry (reference value: 0.29%); type: functional
MV4-11 [22] = assay: Induction of apoptosis in human MV4-11 cells assessed as early apoptotic cells at 100 nM after 48 hrs by Annexin V/propidium iodide staining based flow cytometry (reference value: 2.76%); type: functional
MV4-11 [23] = assay: Induction of apoptosis in human MV4-11 cells assessed as viable cells at 1 uM after 48 hrs by Annexin V/propidium iodide staining based flow cytometry (reference value: 94.4%); type: functional; settings: MV4-11, 48 h, read-out: Activity
MV4-11 [24] = assay: Induction of apoptosis in human MV4-11 cells assessed as early apoptotic cells at 1 uM after 48 hrs by Annexin V/propidium iodide staining based flow cytometry (reference value: 2.76%); type: functional
MV4-11 [25] = assay: Induction of apoptosis in human MV4-11 cells assessed as late apoptotic cells at 1 uM after 48 hrs by Annexin V/propidium iodide staining based flow cytometry (reference value: 2.83%); type: functional
MV4-11 [26] = assay: Induction of apoptosis in human MV4-11 cells assessed as viable cells at 10 uM after 48 hrs by Annexin V/propidium iodide staining based flow cytometry (reference value: 94.4%); type: functional; settings: MV4-11, 48 h, read-out: Activity
MV4-11 [27] = assay: Induction of apoptosis in human MV4-11 cells assessed as early apoptotic cells at 10 uM after 48 hrs by Annexin V/propidium iodide staining based flow cytometry (reference value: 2.76%); type: functional
MV4-11 [28] = assay: Induction of apoptosis in human MV4-11 cells assessed as late apoptotic cells at 10 uM after 48 hrs by Annexin V/propidium iodide staining based flow cytometry (reference value: 2.83%); type: functional
[29] = Toxicity in NOD/SCID mouse xenografted with human MOLM13 cells at 1 to 10 mg/kg, po qd for 10 days; type: organism-based; settings: in vivo, 240 h
MV4-11 [30] = assay: cells; settings: Homo sapiens, MV4-11, 72 h
Description: Antiproliferative activity against human MV4-11 cells harboring FLT3-ITD mutant measured after 72 hrs by MTT assay

MOLM-13 [31] = assay: cells; settings: Homo sapiens, MOLM-13, 72 h
Description: Antiproliferative activity against human MOLM13 cells harboring FLT3-ITD mutant measured after 72 hrs by MTT assay

BaF3 [32] = assay: cells; settings: Mus musculus, BaF3, 72 h
Description: Antiproliferative activity against mouse BAF3 cells harboring FLT3-ITD mutant measured after 72 hrs by MTT assay

BaF3 [33] = assay: cells; settings: Mus musculus, BaF3, 72 h; remark: listed apart in the source
Description: Antiproliferative activity against mouse BAF3 cells harboring FLT3-ITD-F691L mutant measured after 72 hrs by MTT assay

BaF3 [34] = assay: cells; settings: Mus musculus, BaF3, 72 h; remark: listed apart in the source
Description: Antiproliferative activity against mouse BAF3 cells harboring FLT3-ITD-D835V mutant measured after 72 hrs by MTT assay

`C=CCn1cc(-c2ccc(NC(=O)Nc3cc(C(C)(C)C)on3)cc2)c2c(N)ncnc21` gave a Tmax [1] of 45 min, a bioavailability [2] of 59.5% and a Kd [3] of 2.37 nM. For the same compound, the fold change (FC) [4] was 0, the fold change (FC) [5] was 0 and the fold change (FC) [6] was 0. For the same compound, the fold change (FC) (Homo sapiens) was 0.12, the inhibition in vivo at 10 mg/kg (MV4-11 [7]) was 100% and the Activity (MOLM-13 [8]) was 4.55%. It also gave an Activity (MOLM-13 [9]) of 2.37%, an Activity (MOLM-13 [10]) of 35.23% and an Activity (MV4-11 [11]) of 2.06%. It also gave an Activity (MOLM-13 [12]) of 8.57%, a viability at 0.001 µM (MV4-11 [13]) of 92.7% and an IC50 (HL-60) greater than 1000 nM. It also gave an Activity (MOLM-13 [14]) of 2.84%, an Activity (MV4-11 [15]) of 96.25% and an Activity (MV4-11 [16]) of 1.79%. For the same compound, the Activity (MV4-11 [17]) was 1.96%, the viability at 0.01 µM (MOLM-13 [18]) was 66.1% and the Activity (MOLM-13 [19]) was 0.19%. For the same compound, the Activity (MOLM-13 [20]) was 46.8%, the Activity (MOLM-13 [21]) was 0.62% and the Activity (MV4-11 [22]) was 11.3%. It also gave a viability at 1 µM (MV4-11 [23]) of 55%, an Activity (MV4-11 [24]) of 19.9% and an Activity (MV4-11 [25]) of 24.8%. The viability at 10 µM (MV4-11 [26]) was 18.1%, the Activity (MV4-11 [27]) was 13.4% and the Activity (MV4-11 [28]) was 66.4%. The Activity [29] was “Non-Toxic”, the IC50 (MV4-11 [30]) was 0.089 nM and the IC50 (MOLM-13 [31]) was 0.022 nM. It also gave an IC50 (BaF3 [32]) of 0.92 nM, an IC50 (BaF3 [33]) of 13 nM and an IC50 (BaF3 [34]) of 20.7 nM.

— ChEMBL document CHEMBL4385604, “Identification of Pyrrolo[2,3- d]pyrimidine-Based Derivatives as Potent and Orally Effective Fms-like Tyrosine Receptor Kinase 3 (FLT3) Inhibitors for Treating Acute Myelogenous Leukemia” (J Med Chem, 2019)
